From publication PMC4917206, “Chemical Modification of Influenza CD8+ T-Cell Epitopes Enhances Their Immunogenicity Regardless of Immunodominance” (PLoS ONE, 2016)
“Also recorded” adds a separate entry of the source.

Columns and labels:
HLA-A*0201 = target: T1, HLA-A*0201 (Homo sapiens, UniProt P04439, D140Y/D185E/D98H/E176V/E277Q/G131W/G231S/I119V/I121R/I166T/I218V/L300P/L318F/N151K/N90K/P208A/P217A/Q86G/Q94H/R138H/R169H/T345S); format: binding
T1 construct: Soluble MHC was dissolved in PBS containing 0.5 mg/ml bovine γ-globulin; made in house

[1] = system: CD8+ T cells of HLA-A2+ human donors; format: cell-based
[2] = system: splenocytes of WT-vaccinated HLA-A2 tg mice; format: cell-based, mouse; design: key to response compared with WT peptide control, mouse splenocytes: *: Lower response than WT peptide
HLA-A2 transgenic mice = details: mouse, in vivo; for IFN-γ ELISpot response after restimulation with WT peptide / IFN-γ ELISpot response after restimulation with homologous peptide: sc

Substance	FP binding score, percentage inhibition of tracer peptide binding, 4h (HLA-A*0201)	FP binding score, percentage inhibition of tracer peptide binding, 24h (HLA-A*0201)	DC model: IFN-γ-positive CD8+ T cells, Average [1]	rank by T cell activation, DC model [1]	Mouse splenocytes (ex vivo assay), Average [2]	IFN-γ ELISpot response after restimulation with WT peptide (HLA-A2 transgenic mice)	proportion of vaccinated mice that respond (HLA-A2 transgenic mice)	rank by T cell activation, mouse splenocytes [2]	T cell (IFN-γ) response of vaccinated HLA-A2 tg mice, restimulation not specified or both (HLA-A2 transgenic mice)	response compared with WT peptide control, mouse splenocytes [2]	IFN-γ ELISpot response after restimulation with homologous peptide (HLA-A2 transgenic mice)	binding score (HLA-A*0201)	number of mice responding to WT peptide restimulation (HLA-A2 transgenic mice)	number of mice responding to homologous peptide restimulation (HLA-A2 transgenic mice)
G[2-AOC]LGFVFT[PRG] [G26]	60%	54%	0.45	Upper 3	61	do not always react to restimulation with WT peptide	–	–	–	–	–	–	–	–
NMLSTVLGV [NWT, reference compound]	53%	46%	0.04	–	436	–	approximately one out of six	–	–	–	–	–	–	–
[3-PYRA]MYSDFHFI [F100]	79%	73%	–	–	104	higher responses compared to WT-peptide vaccination; also recorded: higher IFN-γ responses than WT peptide-vaccinated mice	–	Upper 3	improved T cell responses; also recorded: higher homologous and heterologous responses	–	–	–	–	–
[SOME][2-AOC]LSTVLGV [N92]	84%	81%	0.04	–	380	did not respond to restimulation	–	Upper 3	–	N92 ^*	did not respond to restimulation	–	–	–
[THR-BZL]MYSDFHFI [F142]	80%	77%	0.08	–	79	–	–	–	–	–	–	–	–	–
[am-phg]MLSTVLGV [N46]	80%	76%	0.02	Lower 3	363	reduced to zero; also recorded: do not always react to restimulation with WT peptide	–	–	–	–	increased the responses compared to vaccination with WT peptide	81%	no responders	four
[am-phg]MLSTVLG[2-AOC] [N11]	90%	88%	0.03	Lower 3	3	–	–	Lower 3	–	–	–	–	–	–
[am-phg]MYSDFHF[2-AOC] [F7]	91%	90%	0.13	–	54	–	–	Lower 3	–	–	–	–	–	–
[am-phg][CpALA]LGFVFTL [G27]	92%	91%	0.1	–	35	–	–	–	–	–	–	–	–	–
[am-phg][NVA]YSDFHFI [F193]	85%	81%	–	–	–	only showed higher responses than WT peptide at a vaccination dose of 25 nmol	–	–	lowest homologous and heterologous responses	–	–	–	–	–
